According to patent US9045474B2, “Compounds and compositions for mitigating tissue damage and lethality” (The Regents of the University of California, priority 2010, dated 2015):
“Also recorded” adds a separate entry of the source.

Tests used:
[1] = tested on: RS112 strain of S. cerevisiae; assay: Classical DEL plating assay, radioprotection at 2000Gy irradiation; format: cell-based, Saccharomyces cerevisiae
Protocol: All DEL assays utilize the established methodology of “recombination” (deletion of the interruption segment and consequent end joining of the adjacent sequences) of a disrupted histidine gene that renders yeast cells exposed to radiation capable of growing on media lacking this amino acid. In the classical DEL assay radiation sensitive RS112 strain of S. cerevisiae is added to the compounds of interest suspended in complete media, incubated for 2 hrs, and irradiated at 2000Gy. The cells are then plated onto full (+13) and lacking histidine (−His) agar plates. After incubation the colonies are scored and recombination events are calculated. The efficacy of the compound is evaluated as a reduced fraction of DEL recombinations in comparison to that of irradiated controls without treatment. Radioprotectors decrease the frequency of such recombination frequencies after radiation exposure.
A plasmid with an internal fragment of the HIS3 gene, which is responsible for histidine synthesis in yeast, without which cells cannot survive in media lacking histidine, has been integrated at the HIS3 locus, yielding an integrative disruption of the HIS3 gene (Schiestl, R. H., et al., Genetics, 1988. 119(2): p. 237-47). […]

RS112 cells = assay: DEL plating assay for mitigation of radiation damage (treatment after 2000Gy); format: cell-based, Saccharomyces cerevisiae
Protocol: The mitigation protocol is based on the same DEL assay principle of recombination of the disrupted HIS3 gene that renders the cells capable of synthesizing its own histidine following radiation exposure. To establish mitigation properties of the compounds in question, the classical DEL protocol is modified as follows: first the RS112 cells are irradiated with 2000Gy and then the treatments are administered at 0 min, 10 min, 20 min, 30 min, and 60 min, incubated for 2 hrs, and plated on +13 and −His agar plates. The efficacy of the compounds is scored the same way as in the classical DEL protocol. Yel1 and Yel2 analogues that are efficacious in the HTS and classical DEL assay are analyzed for mitigation activity using this modified DEL protocol.
Six confirmed hits were also tested for radioprotection with the compounds being presented to irradiated cells at different time points following irradiation exposure. The DEL Plating Assay was used with a radiation sensitive Saccharomyces cerevisiae RS112 strain.
The general DEL Assay is described above. In this example, DEL assay is a genetic construct in the Saccharomyces cerevisiae RS112 strain where a plasmid with an internal fragment of the HIS3 gene has been integrated at the HIS3 locus, yielding an integrative disruption of the HIS3 gene. […] The construct reverts to HIS3+ by recombination between the two his3 deletion alleles which is, in 99% of the cases, associated with the deletion of the entire 6 kilobasepairs of DNA comprising the integrated plasmid. DEL events are inducible with a variety of DNA-assaulting agents: radiation, smoking, UV exposure, 92% of the known carcinogens, etc.
RS112 cells irradiated with 2000Gy show an induction of the deletion frequencies (DEL events) and roughly a 90% killing.

mammalian cell lines = assay: Therapy Bioluminescence Assay (survival following irradiation); format: cell-based; settings: data not shown
C3H mice [2] = assay: Toxicity experiments in C3H mice; format: in vivo, mouse; settings: 150 mg/kg, 75 mg/kg and 5 mg/kg; 120 days following the injections
Protocol: Having seen no adverse effects of the chemicals alone on mammalian cell models we performed a preliminary toxicity study on a group of C3H mice. […] In a pilot reproductive toxicity study, 12, week old female mice were paired up with 6 week old male mice and checked daily for the presence of a characteristic “plug” in the female vaginal canal as an indication of mating. As soon as the mating has occurred, males were removed and the females were treated weekly with 75 mg/kg s.c. throughout the gestation period and until the pups were weaned off (8 week treatment course). After weaning, treatment of the offspring was initiated at the same 75 mg/kg s.c. weekly dose. Controls were injected s.c. on the same schedule with the carrier (1N saline). Five treated and five control females gave birth to the same average number of pups per litter (n=6) without any detectable toxicities to the other. 3 litters of each treated and control groups survived to continue the study. No pathologies, toxicities nor adverse effects were observed. There are no developmental or teratogenic deficiencies in mice, average weights (21 g) are the same in both groups also.

DBA/2 Mice = assay: Radiation-induced leukemia model; format: in vivo, mouse
Protocol: DBA/2 Mice (15/group) were irradiated with ^60Co (3.5 Gy, 0.6 Gy/min) to induce leukemia. One group received no drug, another group of mice were injected s.c. with Yel001 or Yel002 (25 mg/kg) with 5 injections for 5 days. Leukemogenesis was monitored for 90 days. Blood was drawn at days −1, 21, 42, and 63 to monitor for leukemia every 21 days to monitor for leukemia development using WBCs and differentials. This leukemia model takes advantage of non-targeted radiation effects, which are important to the carcinogenic process. This model has a shorter latency period to gamma radiation-induced leukemia (latency to 50% leukemic population: 107 days) than other murine leukemia models such as CBA mouse (399 days: 50% leukemic population). DBA/2 mice were irradiated with 3.5 Gy (^60Co 0.60 Gy/min) and then injected intravenously with (5×10^6) FDC-P1 cells. Animals were then monitored 5×/weekly for 10 weeks-post-injection and then daily after 10 weeks-post-injection until leukemia development and/or euthanasia. After the animal has been determined to be leukemic using hematological parameters, it is euthanized and a necropsy is conducted to definitively determine a conclusive diagnosis of leukemia. Control animals not developing leukemia are assessed at 270 days post experiment initiation. At that time they are euthanized and necropsied.

[3] = tested on: yeast DEL tester strain RS112; assay: DEL assay, UV radiation-induced damage; format: cell-based, Saccharomyces cerevisiae
Protocol: DEL tester strain was irradiated with 4000 J/m^2 in the ultraviolet range and treated with Yel001 or Yel002 at 60 minutes at the concentration of 15 uM.

DEL RS112 tester strain = assay: DEL assay, damage by chemical carcinogen MMS; format: cell-based, Saccharomyces cerevisiae; settings: 15 uM, 1 hrs after exposure to MMS
Excerpt: A DEL assay, described above, is used for assessing mitigation of damage induced by chemical carcinogens by compounds of invention.
Tests in this example show administration of Yel001 and Yel002 confers reduction against chemical carcinogen Methyl methanesulfonate (MMS) in vitro.
Reduction of cytotoxicity and genotoxicity with Yel002 is p<0.007 and p<0.04 restively; p-values for Yel001 are 0.0007 (genotoxicity) and 0.1 for cytotoxicity.

C3H mice [4] = assay: Mitigation of radiation-induced lethality in C3H mice (8Gy, LD100/30); settings: 8Gy
Protocol: Radiomitigation studies were conduced by pre-treating C3H mice with the compounds of interest at as concentration of 75 mg/kg and at 24 hrs and 1 hr before an 8 Gy exposure. On a 5×24 mitigation treatment protocol mice were first lethally irradiated with 8 Gy and 24 hrs later received the first subcutaneous injection with the compound suspension with subsequent injections at 48, 72, 96, and 120 hrs. The concentration of the compound in the suspension was 75 mg/kg carrier with either 1N saline or phosphate buffer solution (PBS).
C3H mice in the mitigation experiment were irradiated with 8Gy and then injected with 75 mg/kg 1 hr post exposure and then again 25 hrs post exposure.

[5] = Mitigation assay of analogs at +30 min and +60 min after 8 Gy IR; settings: FIG. 20
Protocol: Fourteen analogs of Yel001 and Yel002, whose structures are shown in FIGS. 19A and 19B, are subject to tests in a mitigation assay at +30 min and +60 min after 8 Gy radiation (IR).

For `Cc1sc(NC(=O)CN(Cc2ccc(F)cc2)C(=O)c2ccccc2)c(C(N)=O)c1C` [Yel001], the “radioprotector characteristics (genotoxicity and cytotoxicity protection)” value [1] was “radioprotector characteristics”, the “reduction of DEL events (gene reversion frequency)” value (RS112 cells; compound added 0-60 min after 2000Gy, p<0.05) was “decreased DEL frequencies; also recorded: significant reduction of genetic instability” and the “mitigation of radiation cytotoxicity (survival)” value (RS112 cells; compound added at time points after 2000Gy, significant only at 60 min) was “increased survival fractions; also recorded: mitigation of radiation cytotoxicity has been observed”. The “survival following irradiation as compared to that of controls” value (mammalian cell lines) was 130%, the “adverse physiological or behavioral effects” value (C3H mice [2]) was “did not show any adverse physiological nor behavioral adverse effects” and the “first development of leukemia” value (DBA/2 Mice; 3.5 Gy, 25 mg/kg s.c., no drug also within 42 days) was 42 days. The mice exhibiting leukemia (DBA/2 Mice; Day 94, 3.5 Gy, 25 mg/kg s.c. 5 injections, irradiated controls 30%) was 20%, the leukemia frequency (DBA/2 Mice; Day 270, irradiated population 90%) was 50% and the “latency to leukemia development” value (DBA/2 Mice; FIG. 17) was “increased latency to leukemia development”. The “frequency of radiation induced and/or spontaneous cancer” value (DBA/2 Mice; FIG. 18) was “effective for reducing the frequency of radiation induced and spontaneous cancer”, the “UV genotoxicity and cytotoxicity” value ([3]; 15 uM, P<0.05) was “reduces cell death and genotoxicity; also recorded: significantly reduces genotoxicity and cytotoxicity” and the survival ([3]; 4000 J/m^2 UV, 15 uM at 60 minutes, untreated 0.64%) was 2.91%. For the same compound, the “genotoxicity and cytotoxicity by MMS” value (DEL RS112 tester strain) was “reduction in genotoxicity and cytotoxicity; also recorded: can be mitigated”, the “mitigation efficacy” value (C3H mice [4]; 75 mg/kg 1.25 protocol) was “did show therapeutic benefit” and the “mitigation efficacy” value (C3H mice [4]; 75 mg/kg 1.25 protocol, listed as Yel1) was “show activity”. The “mice survived LD100/30 irradiation” value (C3H mice [4]; 75 mg/kg at 1 hr and 25 hrs post exposure, past 30 days, first small study) was 67%, the “mitigation efficacy” value (C3H mice [4]; 75 mg/kg s.c. 5×24 protocol) was “did not exhibit significant efficacy” and the “mitigation efficacy” value (C3H mice [4]; 75 mg/kg s.c. 5×24 protocol, listed as Yel1) was “also showed efficacy”. The percentage of survivors (C3H mice [4]; both protocols, 252 days post irradiation) was 30% and the “animals still alive beyond 30 day window” value (C3H mice [4]; both protocols, +292 days) was 30%.
With `Cc1sc(NC(=O)CN(Cc2ccco2)C(=O)c2ccccc2)c(C(N)=O)c1C` [CJ010] the “mitigation of IR damage” value [5] was “consistently mitigates the IR damage”, the “mitigation efficacy” value (C3H mice [4]; 75 mg/kg s.c. 5×24 protocol) was “significantly mitigated IR-induced damages and death” and the “survival at 30 days” value (C3H mice [4]; 75 mg/kg s.c. at 24, 48, 72, 96, 120 hrs (5×24)) was 75%.
